# Assay results published in patent US7384912B2, “Treatment of bone disorders with skeletal anabolic drugs” (Osteotrophin, LLC, priority 2002, dated 2008).
# Where two headings read alike, the source gives them in different places. Marks after values point to notes of the source that are not given here. No end group written: not given here.
# T1: PTH/PTHrP receptors in human renal cortical membranes (RCM) (Homo sapiens, UniProt Q03431)
# T1 sequence (Q03431 27-593): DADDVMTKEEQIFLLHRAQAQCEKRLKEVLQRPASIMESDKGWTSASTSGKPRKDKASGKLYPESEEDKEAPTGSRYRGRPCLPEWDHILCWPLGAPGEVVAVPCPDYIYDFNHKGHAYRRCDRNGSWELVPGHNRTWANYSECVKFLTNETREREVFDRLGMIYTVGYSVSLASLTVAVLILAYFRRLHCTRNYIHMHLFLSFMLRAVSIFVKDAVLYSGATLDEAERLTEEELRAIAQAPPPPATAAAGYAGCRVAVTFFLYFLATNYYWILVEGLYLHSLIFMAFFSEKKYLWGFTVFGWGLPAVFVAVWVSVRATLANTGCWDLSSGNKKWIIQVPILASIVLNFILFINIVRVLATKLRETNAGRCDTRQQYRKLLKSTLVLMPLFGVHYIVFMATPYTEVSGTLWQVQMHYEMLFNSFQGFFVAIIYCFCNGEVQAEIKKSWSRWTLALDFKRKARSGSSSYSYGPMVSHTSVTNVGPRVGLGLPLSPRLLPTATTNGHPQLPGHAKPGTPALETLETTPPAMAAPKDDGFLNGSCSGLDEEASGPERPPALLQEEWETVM
# T2: PTH/PTHrP receptors on SaOS-2 intact cells (Homo sapiens, UniProt Q03431)
# T2 sequence (Q03431 27-593): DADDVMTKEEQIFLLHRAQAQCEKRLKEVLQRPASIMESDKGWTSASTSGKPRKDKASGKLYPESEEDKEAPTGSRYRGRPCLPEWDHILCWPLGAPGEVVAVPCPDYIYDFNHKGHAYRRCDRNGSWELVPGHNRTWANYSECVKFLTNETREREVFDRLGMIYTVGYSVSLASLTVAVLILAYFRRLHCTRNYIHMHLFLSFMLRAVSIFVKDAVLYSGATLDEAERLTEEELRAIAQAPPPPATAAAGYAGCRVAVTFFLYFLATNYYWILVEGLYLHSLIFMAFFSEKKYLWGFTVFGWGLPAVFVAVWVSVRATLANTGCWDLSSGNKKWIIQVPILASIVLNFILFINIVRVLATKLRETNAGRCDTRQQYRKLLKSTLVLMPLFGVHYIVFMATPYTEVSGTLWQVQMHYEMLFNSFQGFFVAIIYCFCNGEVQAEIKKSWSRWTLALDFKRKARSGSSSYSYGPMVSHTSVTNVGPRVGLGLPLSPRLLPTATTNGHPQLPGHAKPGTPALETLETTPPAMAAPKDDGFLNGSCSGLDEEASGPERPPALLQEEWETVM
# T3: PTH/PTHrP receptors in SaOS-2 membranes (Homo sapiens, UniProt Q03431)
# T3 sequence (Q03431 27-593): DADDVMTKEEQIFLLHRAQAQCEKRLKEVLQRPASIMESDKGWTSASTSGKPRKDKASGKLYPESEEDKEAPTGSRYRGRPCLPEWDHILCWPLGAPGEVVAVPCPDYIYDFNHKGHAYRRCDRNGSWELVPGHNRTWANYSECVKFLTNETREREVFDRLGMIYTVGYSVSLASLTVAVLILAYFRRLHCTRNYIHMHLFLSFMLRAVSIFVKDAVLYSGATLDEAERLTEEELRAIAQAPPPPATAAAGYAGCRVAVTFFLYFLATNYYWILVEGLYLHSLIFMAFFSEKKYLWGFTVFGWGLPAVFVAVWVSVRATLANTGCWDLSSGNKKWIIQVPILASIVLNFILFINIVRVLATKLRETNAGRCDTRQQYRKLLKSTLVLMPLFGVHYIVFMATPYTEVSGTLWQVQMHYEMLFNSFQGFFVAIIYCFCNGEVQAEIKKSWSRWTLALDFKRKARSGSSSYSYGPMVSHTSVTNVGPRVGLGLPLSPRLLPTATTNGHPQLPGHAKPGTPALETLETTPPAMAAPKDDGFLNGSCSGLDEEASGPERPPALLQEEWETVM
# How the values were obtained:
# [1] = molecular target: T1, PTH/PTHrP receptors in human renal cortical membranes (RCM); assay: Competition binding of 125I-(Tyr36)hPTHrP-(1-36)NH2 to human renal cortical membranes
# Method: All steps were performed in the presence of the following protease inhibitors: aprotinin [10 Kallikrein inhibitor units (KIU/ml], pepstatin (5 μg/ml), leupeptin (45 μg/ml), and phenylmethanesulfanylfluoride (10 μg/ml). Normal human kidney cortex was from four separate nephrectomy specimens removed for localized transitional cell carcinoma, renal cell carcinoma, or benign cysts. Renal function in all individuals was normal as assessed by serum creatinine and pyelography. Membranes were pooled, aliquoted, and stored at −70° C. for later use.
# Human RCM were added to a final concentration of 90 μg/ml. […] The incubation time of 30 min was used for subsequent equilibrium binding competition studies.
# (§1) Statistical differences were assessed by paired and unpaired two-tailed Student's t test.
# [2] = molecular target: T2, PTH/PTHrP receptors on SaOS-2 intact cells; assay: Competition binding of 125I-(Tyr36)hPTHrP-(1-36)NH2 to SaOS-2 intact cells
# Method: The medium was changed every other day, and studies were performed at 5-7 days post confluence. Cell numbers were determined using a Coulter counter.
# Binding studies were conducted at 15° C. in the presence of chymostatin (100 μg/ml) and bacitracin (200 μg/ml). […] The incubation time of 150 min was therefore used for competitive binding studies.
# [3] = tested on: adenylate cyclase in SaOS-2 intact cells; assay: Adenylate cyclase assay in SaOS-2 intact cells; assay type: cell-based, human; details: 15° C., 60 min
# Method: Adenylate cyclase-stimulating activity was examined in confluent SAOS-2 cells as previously described for ROS 17/2.8 cells (Merendino et al., Science 231:388-390, (1986)), with the following modification. The intact cell assay was conducted at 15° C., the same conditions employed for binding to intact SaOS-2 cells (vide supra). […] Dose response curves for each peptide were thus generated using 60 min incubations at 15° C. under binding assay conditions.
# as §1
# [4] = tested on: ovariectomized (OVX) rats; assay: Bone histomorphometry of the right proximal tibia in ovariectomized rats; assay type: in vivo, rat; parameters: Trabecular Number Tb.N.: unit not given here; details: for Apposition Rate MAR / Bone Formation Rate BFR/BS / Mineralizing Surface MS/BS / Osteoclast Surface Oc.PM / Resorbing Surface E.PM / Trabecular Area Tb.A. / Trabecular Number Tb.N. / Trabecular Space Tb.Sp. / Trabecular Thickness Tb.Th.: 40 μg/kg/day s.c. once daily
# [5] = tested on: ovariectomized (OVX) rats; assay: Bone mass measurements in ovariectomized rats; assay type: in vivo, rat; parameters: Left Femur Length: unit not given here; details: 40 μg/kg/day s.c. once daily
# [6] = tested on: ovariectomized (OVX) rats; assay: Biomechanical measures of strength in ovariectomized rats; assay type: in vivo, rat; details: 40 μg/kg/day s.c. once daily
# [7] = tested on: patients with osteoporosis; details: cited from earlier work
# [8] = molecular target: T3, PTH/PTHrP receptors in SaOS-2 membranes; assay: Competition binding of 125I-(Tyr36)hPTHrP-(1-36)NH2 to SaOS-2 membranes; details: 30° C., 60 min
# Method: Briefly, postconfluent cells in 150 cm^2 flasks were scraped into membrane buffer [10 mM Tris HCl (pH 7.5), 0.2 mM MgCl2, 0.5 mM EGTA, 1 mM dithiothreitol, leupeptin 45 μg/ml, pepstatin 5 μg/ml, aprotinin 10 KIU/ml, and phenylmethane sulfanyl-fluoride 10 μg/ml] at 0° C. Cell disruption was achieved by sonification and the suspension was centrifuged at 13,000×g for 15 min at 4° C. […] The suspension was layered onto a cushion of the membrane buffer containing 45% sucrose and centrifuged at 70,000×g for 30 min at 4° C. […] Protein concentrations were determined by the method of Lowry using BSA as standard.
# The binding assay for SaOS-2 membranes was conducted as for human RCM. Membranes were added to a final concentration of 112.5 μg/ml and specific binding reached equilibrium by 60 min at 30° C.
molecule,measurement,setting,value
hPTHrP-(1-74),affinity less than that of hPTHrP-(1-36),[1]; RCM,25 fold
same,affinity less than that of hPTHrP-(1-36),[2]; SaOS-2 cells,9 fold
same,EC50,[3],9.2 ± 1 nM
hPTH-(1-34),EC50,[3],1.6 nM
same,Apposition Rate MAR,[4]; 30 days,2.4 ± 0.1^c μm/d
same,Bone Formation Rate BFR/BS,[4]; 30 days,"1.18 ± 7^a,c μm/d"
same,Mineralizing Surface MS/BS,[4]; 30 days,"49 ± 2^a,c %"
same,Osteoclast Surface Oc.PM,[4]; 30 days,2.3 ± 0.6%
same,Resorbing Surface E.PM,[4]; 30 days,8.6 ± 1.2%
same,Trabecular Area Tb.A.,[4]; 30 days,19 ± 2^a %
same,Trabecular Number Tb.N.,[4]; 30 days,2.3 ± 0.1
same,Trabecular Space Tb.Sp.,[4]; 30 days,"367 ± 28^a,c Φm"
same,Trabecular Thickness Tb.Th.,[4]; 30 days,"81 ± 5^a,c Φm"
same,Apposition Rate MAR,[4]; 90 days,"3.0 ± 0.1^a,c μm/d"
same,Bone Formation Rate BFR/BS,[4]; 90 days,"1.23 ± 4^a,c μm/d"
same,Mineralizing Surface MS/BS,[4]; 90 days,"41 ± 1^a,c %"
same,Osteoclast Surface Oc.PM,[4]; 90 days,2.6 ± 0.5%
same,Resorbing Surface E.PM,[4]; 90 days,10.6 ± 1.3^c %
same,Trabecular Area Tb.A.,[4]; 90 days,"38 ± 3^a,c %"
same,Trabecular Number Tb.N.,[4]; 90 days,2.4 ± 0.2
same,Trabecular Space Tb.Sp.,[4]; 90 days,274 ± 34^a Φm
same,Trabecular Thickness Tb.Th.,[4]; 90 days,"158 ± 6^a,c Φm"
same,Apposition Rate MAR,[4]; 180 days,3.8 ± 0.7^c μm/d
same,Bone Formation Rate BFR/BS,[4]; 180 days,"1.53 ± 28^a,c μm/d"
same,Mineralizing Surface MS/BS,[4]; 180 days,"40 ± 2^a,c %"
same,Osteoclast Surface Oc.PM,[4]; 180 days,2.0 ± 0.4%
same,Resorbing Surface E.PM,[4]; 180 days,6.4 ± 1.5%
same,Trabecular Area Tb.A.,[4]; 180 days,"38 ± 3^a,c %"
same,Trabecular Number Tb.N.,[4]; 180 days,2.3 ± 0.1
same,Trabecular Space Tb.Sp.,[4]; 180 days,279 ± 29^a Φm
same,Trabecular Thickness Tb.Th.,[4]; 180 days,"163 ± 8^a,c Φm"
same,"bone in the right proximal tibia, photomicrographs",[4]; 90 days of treatment,not only restores lost bone but significantly increases trabecular bone volume over Sham
same,Left Femur BMC,[5]; 30 days,"0.340 ± 0.011^a,c"
same,Left Femur BMD,[5]; 30 days,0.200 ± 0.004^a
same,Left Femur Length,[5]; 30 days,34.9 ± 0.3
same,Left Femur X Area,[5]; 30 days,1.68 ± 0.04^c
same,Radius Ash Weight,[5]; 30 days,60 ± 1^c mg
same,Whole Body BMC,[5]; 30 days,64 ± 3^c
same,Left Femur BMC,[5]; 90 days,"0.401 ± 0.010^a,c"
same,Left Femur BMD,[5]; 90 days,"0.232 ± 0.005^a,c"
same,Left Femur Length,[5]; 90 days,35.7 ± 0.2^c
same,Left Femur X Area,[5]; 90 days,1.73 ± 0.03^c
same,Radius Ash Weight,[5]; 90 days,"66 ± 1^a,c mg"
same,Whole Body BMC,[5]; 90 days,69 ± 3^c
same,Left Femur BMC,[5]; 180 days,"0.451 ± 0.012^a,c"
same,Left Femur BMD,[5]; 180 days,"0.234 ± 0.004^a,c"
same,Left Femur Length,[5]; 180 days,35.6 ± 0.3^c
same,Left Femur X Area,[5]; 180 days,"1.84 ± 0.04^a,c"
same,Radius Ash Weight,[5]; 180 days,"72 ± 2^a,c mg"
same,Whole Body BMC,[5]; 180 days,71 ± 3^c
same,"Femur Neck Ultimate Load, (Fu)",[6]; 30 days,139 ± 3^ac N
same,Mid-Femur Cortical Thickness (t),[6]; 30 days,0.64 ± 0.02^ac mm
same,Mid-Femur Moment of Inertia (I),[6]; 30 days,4.5 ± 0.2 mm^4
same,Mid-Femur Stiffness (S),[6]; 30 days,571 ± 13 N/mm
same,Mid-Femur Toughness (u),[6]; 30 days,6.0 ± 0.3^c MJ/m^3
same,Mid-Femur Ultimate Load (Fu),[6]; 30 days,185 ± 6^ac N
same,Mid-Femur Ultimate Stress (Su),[6]; 30 days,229 ± 7 MPa
same,Mid-Femur Work to Failure (U),[6]; 30 days,63 ± 4 mJ
same,Mid-Femur Young's Modulus (E),[6]; 30 days,9.1 ± 0.3 Gpa
same,"Femur Neck Ultimate Load, (Fu)",[6]; 90 days,146 ± 4^ac N
same,Mid-Femur Cortical Thickness (t),[6]; 90 days,0.71 ± 0.02^ac mm
same,Mid-Femur Moment of Inertia (I),[6]; 90 days,4.5 ± 0.1 mm^4
same,Mid-Femur Stiffness (S),[6]; 90 days,641 ± 14^ac N/mm
same,Mid-Femur Toughness (u),[6]; 90 days,5.7 ± 0.3^a MJ/m^3
same,Mid-Femur Ultimate Load (Fu),[6]; 90 days,209 ± 4^ac N
same,Mid-Femur Ultimate Stress (Su),[6]; 90 days,251 ± 7^ac MPa
same,Mid-Femur Work to Failure (U),[6]; 90 days,62 ± 3^a mJ
same,"Femur Neck Ultimate Load, (Fu)",[6]; 180 days,147 ± 6^ac N
same,Mid-Femur Cortical Thickness (t),[6]; 180 days,0.89 ± 0.01^ac mm
same,Mid-Femur Moment of Inertia (I),[6]; 180 days,5.4 ± 0.3^ac mm^4
same,Mid-Femur Stiffness (S),[6]; 180 days,814 ± 31^ac N/mm
same,Mid-Femur Toughness (u),[6]; 180 days,5.0 ± 0.3^ac MJ/m^3
same,Mid-Femur Ultimate Load (Fu),[6]; 180 days,241 ± 9^ac N
same,Mid-Femur Ultimate Stress (Su),[6]; 180 days,251 ± 8^ac MPa
same,Mid-Femur Work to Failure (U),[6]; 180 days,61 ± 4^ac mJ
same,increase in urinary hydroxyproline and pyridinolines,[7]; at three months (Finkelstein et al.),approximately 200%
same,increase in resorption assessed using urinary NIX,[7]; at three months (Lindsay et al.),25%
same,increase in lumbar spine bone mineral density,[7]; multiple studies,10-15%
same,increase in lumbar spine trabecular bone density by QCT,[7]; one study (Roe et al.),≤ 80%
same,increase in spine bone mineral density by DXA,[7]; one study (Roe et al.),≤ 30%
O=C(c1ccc(OCCN2CCCCC2)cc1)c1c(-c2ccc(O)cc2)sc2cc(O)ccc12 [raloxifene],increase in lumbar spine bone mineral density,[7]; two to three years of administration,~3%
hPTHrP-(37-74) (RATSEVSPNSKPSPNTKNHPVRFGSDDEGRYLTQETNK) [Human PTHrP fragment 37-74 prepared by solid phase synthesis],Binding (IC50) Kidney membranes,"[1]; human RCM, 30° C., 30 min",did not inhibit binding
same,Binding (IC50) SaOS membranes,[8],did not inhibit binding
same,Binding (IC50) SaOS cells,"[2]; intact cells, 15° C., 150 min",did not inhibit binding
"AVSEHQLLHDKGKSIQDLRRRIFLQNLIEGVNTAEY-NH2 [(Tyr^36)cPTHrP-(1-36)NH2, (Tyr^36) chicken (c)PTHrP-(1-36)amide]",IC50,"[1]; human RCM, 30° C., 30 min, read-out: Binding (IC50) Kidney membranes",0.47 ± 0.22 nM
same,IC50,[8],1.1 ± 0.3 nM
"bPTH-(1-84) (protein, Bovine full-length parathyroid hormone from the National Hormone and Pituitary Program) AVSEIQFMHNLGKHLSSMERVEWLRKKLQDVHNFVALGASIAYRDGSSQRPRKKEDNVLVESHQKSLGEADKADVDVLIKAKPQ",relative affinity less than the amino-terminal analogs,[1]; RCM and SaOS-2 membranes,approximately 10 fold
